{"source": "ChEMBL document CHEMBL1201862", "about": "“PubChem BioAssay data set” (2004)", "key": {"[1]": {"biological_target": "G-protein coupled receptor 35 (Homo sapiens, UniProt Q9HC97)", "experiment": "SAR Analysis for the identification of Selective Antagonists of ERK1/2 Activity in GPR35-Overexpressing U2OS Cells. [Related pubchem assays: 2079, 2058 ]", "assay_type": "functional, cell-based"}, "[2]": {"biological_target": "G-protein coupled receptor 55 (Homo sapiens, UniProt Q9Y2T6)", "sequence (Q9Y2T6 whole entry)": "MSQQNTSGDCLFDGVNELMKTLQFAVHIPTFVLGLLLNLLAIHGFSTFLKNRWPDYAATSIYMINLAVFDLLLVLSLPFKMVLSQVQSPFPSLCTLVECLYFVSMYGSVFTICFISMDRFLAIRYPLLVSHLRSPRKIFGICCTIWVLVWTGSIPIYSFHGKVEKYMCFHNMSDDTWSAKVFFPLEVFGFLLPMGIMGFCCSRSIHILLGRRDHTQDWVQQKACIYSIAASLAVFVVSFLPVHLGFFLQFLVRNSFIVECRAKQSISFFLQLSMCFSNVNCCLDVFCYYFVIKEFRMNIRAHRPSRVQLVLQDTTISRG", "experiment": "GPR55 antagonists, SAR follow-up, counter-screen for GPR35 antagonist project, imaging, image-based (AID 2397)", "assay_type": "functional"}, "[3]": {"biological_target": "T1, Dual specificity protein phosphatase 3 (Homo sapiens, UniProt P51452)", "T1 sequence (P51452 whole entry)": "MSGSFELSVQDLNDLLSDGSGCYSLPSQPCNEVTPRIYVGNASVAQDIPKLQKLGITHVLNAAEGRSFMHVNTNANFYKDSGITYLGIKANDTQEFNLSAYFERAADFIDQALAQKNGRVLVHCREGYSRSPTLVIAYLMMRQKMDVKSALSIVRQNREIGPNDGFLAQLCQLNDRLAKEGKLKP", "experiment": "SAR VHR1 absorbance Assay for In Vitro dose response studies. [Related pubchem assays (depositor defined):AID1654, AID1661, AID1878, AID1992, AID2004]"}, "[4]": {"biological_target": "T1, Dual specificity protein phosphatase 3", "experiment": "SAR VHR1 Fluorescent Assay for In Vitro dose response studies. [Related pubchem assays (depositor defined):AID1654, AID1661, AID1878, AID1992, AID2004, AID2070, AID2085]", "assay_type": "functional"}, "[5]": {"biological_target": "T2, Tyrosine-protein phosphatase non-receptor type 7 (Homo sapiens, UniProt P35236)", "T2 sequence (P35236 whole entry)": "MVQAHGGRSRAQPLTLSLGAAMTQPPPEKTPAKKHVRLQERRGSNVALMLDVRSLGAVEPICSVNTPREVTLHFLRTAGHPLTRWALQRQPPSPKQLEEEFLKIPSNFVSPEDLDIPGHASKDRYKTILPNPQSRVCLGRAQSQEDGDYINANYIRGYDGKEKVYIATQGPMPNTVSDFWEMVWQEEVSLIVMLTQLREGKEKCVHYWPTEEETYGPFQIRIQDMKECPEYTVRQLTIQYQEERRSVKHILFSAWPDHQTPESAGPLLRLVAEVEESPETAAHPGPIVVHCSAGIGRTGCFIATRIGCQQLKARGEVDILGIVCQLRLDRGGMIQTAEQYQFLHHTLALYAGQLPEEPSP", "experiment": "redox-dependent HePTP inhibition, mechanism study, biochemical, fluorescence (AID 2068)", "assay_type": "functional"}, "[6]": {"biological_target": "Dual specificity protein phosphatase 6 (Rattus norvegicus, UniProt Q64346)", "sequence (Q64346 whole entry)": "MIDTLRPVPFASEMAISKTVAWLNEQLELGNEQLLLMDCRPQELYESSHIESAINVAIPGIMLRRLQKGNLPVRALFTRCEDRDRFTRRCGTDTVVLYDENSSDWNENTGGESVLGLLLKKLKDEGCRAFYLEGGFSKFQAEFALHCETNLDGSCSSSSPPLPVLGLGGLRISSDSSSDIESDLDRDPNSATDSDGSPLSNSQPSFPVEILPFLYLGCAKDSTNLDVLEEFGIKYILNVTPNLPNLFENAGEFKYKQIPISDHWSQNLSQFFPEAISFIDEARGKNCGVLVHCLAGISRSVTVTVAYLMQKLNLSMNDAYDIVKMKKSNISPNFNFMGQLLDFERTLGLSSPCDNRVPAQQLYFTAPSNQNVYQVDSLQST", "assay_type": "functional"}, "Beta-lactamase [7]": {"biological_target": "Beta-lactamase (Pseudomonas aeruginosa, UniProt Q79MP6)", "sequence (Q79MP6 whole entry)": "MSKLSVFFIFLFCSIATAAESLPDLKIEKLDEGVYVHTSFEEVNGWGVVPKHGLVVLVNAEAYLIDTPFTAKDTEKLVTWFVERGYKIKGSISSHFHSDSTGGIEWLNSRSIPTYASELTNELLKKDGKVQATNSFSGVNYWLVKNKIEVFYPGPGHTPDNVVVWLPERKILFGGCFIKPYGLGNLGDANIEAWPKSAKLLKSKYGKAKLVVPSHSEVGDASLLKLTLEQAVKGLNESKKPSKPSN"}, "Beta-lactamase [8]": {"biological_target": "Beta-lactamase (Salmonella choleraesuis (strain SC-B67), UniProt Q5J463)", "sequence (Q5J463 whole entry)": "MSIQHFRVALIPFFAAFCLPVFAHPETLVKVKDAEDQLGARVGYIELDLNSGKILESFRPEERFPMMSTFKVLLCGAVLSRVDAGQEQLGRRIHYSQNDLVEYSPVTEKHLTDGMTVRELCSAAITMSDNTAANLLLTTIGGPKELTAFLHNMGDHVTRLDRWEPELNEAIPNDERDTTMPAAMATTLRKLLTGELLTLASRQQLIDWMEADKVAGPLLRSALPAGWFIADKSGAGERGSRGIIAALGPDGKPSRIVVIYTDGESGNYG"}, "ORF 73": {"biological_target": "ORF 73 (Human herpesvirus 8, UniProt O40947)", "sequence (O40947 whole entry)": "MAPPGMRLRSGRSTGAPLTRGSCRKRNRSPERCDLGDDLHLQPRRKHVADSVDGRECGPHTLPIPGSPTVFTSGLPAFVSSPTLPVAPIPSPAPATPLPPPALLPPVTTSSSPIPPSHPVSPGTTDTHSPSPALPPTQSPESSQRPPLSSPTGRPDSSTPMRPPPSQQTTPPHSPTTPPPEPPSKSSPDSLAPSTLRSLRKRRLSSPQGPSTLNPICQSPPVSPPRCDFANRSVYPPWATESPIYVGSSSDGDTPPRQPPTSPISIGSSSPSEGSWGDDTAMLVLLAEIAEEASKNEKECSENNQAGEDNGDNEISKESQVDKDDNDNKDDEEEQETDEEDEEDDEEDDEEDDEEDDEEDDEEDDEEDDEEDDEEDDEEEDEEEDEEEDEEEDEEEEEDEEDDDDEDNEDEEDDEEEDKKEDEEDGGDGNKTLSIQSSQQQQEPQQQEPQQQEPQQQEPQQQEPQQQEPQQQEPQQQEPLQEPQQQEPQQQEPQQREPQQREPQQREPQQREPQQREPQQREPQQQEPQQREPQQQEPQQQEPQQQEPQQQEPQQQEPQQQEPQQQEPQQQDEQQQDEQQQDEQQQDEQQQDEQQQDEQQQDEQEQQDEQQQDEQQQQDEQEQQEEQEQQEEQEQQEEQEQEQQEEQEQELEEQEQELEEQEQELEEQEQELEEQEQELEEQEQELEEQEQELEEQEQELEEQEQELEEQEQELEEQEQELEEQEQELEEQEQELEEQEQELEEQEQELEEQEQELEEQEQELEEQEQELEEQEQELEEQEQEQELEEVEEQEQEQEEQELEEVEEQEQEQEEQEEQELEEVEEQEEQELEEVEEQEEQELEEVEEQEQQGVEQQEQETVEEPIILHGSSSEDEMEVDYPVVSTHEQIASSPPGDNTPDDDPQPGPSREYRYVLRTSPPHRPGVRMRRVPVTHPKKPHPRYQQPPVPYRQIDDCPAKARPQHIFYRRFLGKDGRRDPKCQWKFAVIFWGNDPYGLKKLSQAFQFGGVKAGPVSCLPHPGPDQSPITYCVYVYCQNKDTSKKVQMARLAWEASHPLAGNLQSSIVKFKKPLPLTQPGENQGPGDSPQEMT", "experiment": "inhibitors of C-LANA binding to LBS DNA, dose response, biochemical, fluorescence polarization, cherry-picked samples (AID 504725);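 note: fluorescence polarization of a labeled DNA duplex reporting LANA DNA binding; potency is for inhibitors that block LANA binding to the DNA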", "set-up": "species or system Human gammaherpesvirus 8"}, "Keap1/Nrf2": {"biological_target": "Keap1/Nrf2 (Homo sapiens, UniProt Q14145)", "experiment": "Keap1-Nrf2 protein-protein interaction inhibitors, dose response, biochemical, fluorescence polarization, cherry-picked samples (AID 588683)"}, "[9]": {"biological_target": "Bifunctional protein GlmU (Mycobacterium tuberculosis, UniProt P9WMN3)", "experiment": "Inhibitors of Mycobacterial Glucosamine-1-phosphate acetyl transferase (GlmU). Secondary screen.", "set-up": "species or system Mycobacterium tuberculosis H37Rv"}, "[10]": {"biological_target": "DNA dC->dU-editing enzyme APOBEC-3A (Homo sapiens, UniProt P31941)", "sequence (P31941 whole entry)": "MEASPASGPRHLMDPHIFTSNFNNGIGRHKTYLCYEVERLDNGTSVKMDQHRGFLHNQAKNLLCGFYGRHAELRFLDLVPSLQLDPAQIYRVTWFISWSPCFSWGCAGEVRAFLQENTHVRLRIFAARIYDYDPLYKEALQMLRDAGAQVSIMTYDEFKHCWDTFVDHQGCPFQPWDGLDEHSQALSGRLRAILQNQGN", "experiment": "APOBEC3A DNA deaminase inhibitors, dose response, biochemical (AID 504722)", "assay_type": "functional"}, "[11]": {"biological_target": "DNA dC->dU-editing enzyme APOBEC-3G (Homo sapiens, UniProt Q9HC16)", "sequence (Q9HC16 whole entry)": "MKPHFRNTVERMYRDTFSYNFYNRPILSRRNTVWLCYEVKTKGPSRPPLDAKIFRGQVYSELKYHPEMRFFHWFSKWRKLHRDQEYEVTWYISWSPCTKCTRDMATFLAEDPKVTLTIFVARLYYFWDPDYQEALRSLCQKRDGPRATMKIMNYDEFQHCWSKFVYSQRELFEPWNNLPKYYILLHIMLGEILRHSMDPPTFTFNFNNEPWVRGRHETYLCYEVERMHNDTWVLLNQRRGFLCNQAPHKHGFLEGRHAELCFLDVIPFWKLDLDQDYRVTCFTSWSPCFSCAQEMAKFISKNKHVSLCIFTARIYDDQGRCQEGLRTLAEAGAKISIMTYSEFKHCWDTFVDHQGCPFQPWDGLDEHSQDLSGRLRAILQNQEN", "experiment": "Dose Response confirmation of small molecule APOBEC3G DNA Deaminase Inhibitors via a fluorescence-based single-stranded DNA deaminase assay. [Related pubchem assays (depositor defined):AID493012, AID493028]", "assay_type": "functional"}, "[12]": {"biological_target": "T3, Apoptotic protease-activating factor 1 (Homo sapiens, UniProt O14727)", "T3 sequence (O14727 whole entry)": "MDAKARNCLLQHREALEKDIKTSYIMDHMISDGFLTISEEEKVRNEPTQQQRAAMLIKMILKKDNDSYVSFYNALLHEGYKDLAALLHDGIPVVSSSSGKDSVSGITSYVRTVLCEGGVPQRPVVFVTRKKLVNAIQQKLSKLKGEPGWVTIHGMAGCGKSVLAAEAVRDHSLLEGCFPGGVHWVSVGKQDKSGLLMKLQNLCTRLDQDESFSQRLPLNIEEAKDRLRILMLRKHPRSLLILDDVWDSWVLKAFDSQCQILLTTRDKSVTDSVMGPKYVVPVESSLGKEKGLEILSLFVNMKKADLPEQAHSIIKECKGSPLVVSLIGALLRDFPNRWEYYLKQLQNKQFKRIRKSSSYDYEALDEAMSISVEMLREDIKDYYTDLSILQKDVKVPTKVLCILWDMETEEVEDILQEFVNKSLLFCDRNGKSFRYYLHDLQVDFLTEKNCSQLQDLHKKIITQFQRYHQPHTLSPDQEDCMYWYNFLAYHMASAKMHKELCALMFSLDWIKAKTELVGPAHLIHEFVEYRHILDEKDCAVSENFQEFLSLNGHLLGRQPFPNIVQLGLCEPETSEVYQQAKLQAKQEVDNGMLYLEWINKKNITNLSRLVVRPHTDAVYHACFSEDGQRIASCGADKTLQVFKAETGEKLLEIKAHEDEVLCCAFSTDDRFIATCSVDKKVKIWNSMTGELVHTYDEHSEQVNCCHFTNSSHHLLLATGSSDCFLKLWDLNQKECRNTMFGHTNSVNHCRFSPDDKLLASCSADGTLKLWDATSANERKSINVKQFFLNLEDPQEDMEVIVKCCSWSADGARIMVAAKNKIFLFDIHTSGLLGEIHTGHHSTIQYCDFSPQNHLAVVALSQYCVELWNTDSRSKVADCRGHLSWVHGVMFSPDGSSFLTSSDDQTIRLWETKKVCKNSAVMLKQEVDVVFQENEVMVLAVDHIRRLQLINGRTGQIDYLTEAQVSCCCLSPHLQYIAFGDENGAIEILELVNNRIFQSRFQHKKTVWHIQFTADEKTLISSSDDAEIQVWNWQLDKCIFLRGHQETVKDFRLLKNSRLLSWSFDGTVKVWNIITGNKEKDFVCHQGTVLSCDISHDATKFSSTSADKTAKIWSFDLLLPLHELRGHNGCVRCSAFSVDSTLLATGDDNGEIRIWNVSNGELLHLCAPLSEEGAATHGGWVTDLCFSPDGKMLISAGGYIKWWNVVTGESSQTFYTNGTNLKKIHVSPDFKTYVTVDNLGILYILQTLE", "experiment": "activation of Apaf-1 mediated apoptosis – fluorescent, uHTS hits, dose response (AID 588554)", "assay_type": "functional"}, "[13]": {"biological_target": "T4, Carboxy-terminal domain RNA polymerase II polypeptide A small phosphatase 1 (Homo sapiens, UniProt Q9GZU7)", "T4 sequence (Q9GZU7 whole entry)": "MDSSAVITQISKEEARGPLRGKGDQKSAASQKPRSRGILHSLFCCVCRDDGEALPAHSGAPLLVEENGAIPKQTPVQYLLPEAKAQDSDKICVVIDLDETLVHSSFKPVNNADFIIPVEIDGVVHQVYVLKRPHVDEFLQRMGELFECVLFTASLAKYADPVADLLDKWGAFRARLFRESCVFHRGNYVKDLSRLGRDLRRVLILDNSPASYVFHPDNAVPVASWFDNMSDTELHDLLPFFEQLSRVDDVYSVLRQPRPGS", "experiment": "inhibitors of CTDSP1, concentration-response testing, biochemical assay, absorbance-based, actives from ultra-high-throughput screening (AID 540297)", "assay_type": "functional"}, "[14]": {"biological_target": "DNA (cytosine-5)-methyltransferase 1 (Homo sapiens, UniProt P26358)", "sequence (P26358 whole entry)": "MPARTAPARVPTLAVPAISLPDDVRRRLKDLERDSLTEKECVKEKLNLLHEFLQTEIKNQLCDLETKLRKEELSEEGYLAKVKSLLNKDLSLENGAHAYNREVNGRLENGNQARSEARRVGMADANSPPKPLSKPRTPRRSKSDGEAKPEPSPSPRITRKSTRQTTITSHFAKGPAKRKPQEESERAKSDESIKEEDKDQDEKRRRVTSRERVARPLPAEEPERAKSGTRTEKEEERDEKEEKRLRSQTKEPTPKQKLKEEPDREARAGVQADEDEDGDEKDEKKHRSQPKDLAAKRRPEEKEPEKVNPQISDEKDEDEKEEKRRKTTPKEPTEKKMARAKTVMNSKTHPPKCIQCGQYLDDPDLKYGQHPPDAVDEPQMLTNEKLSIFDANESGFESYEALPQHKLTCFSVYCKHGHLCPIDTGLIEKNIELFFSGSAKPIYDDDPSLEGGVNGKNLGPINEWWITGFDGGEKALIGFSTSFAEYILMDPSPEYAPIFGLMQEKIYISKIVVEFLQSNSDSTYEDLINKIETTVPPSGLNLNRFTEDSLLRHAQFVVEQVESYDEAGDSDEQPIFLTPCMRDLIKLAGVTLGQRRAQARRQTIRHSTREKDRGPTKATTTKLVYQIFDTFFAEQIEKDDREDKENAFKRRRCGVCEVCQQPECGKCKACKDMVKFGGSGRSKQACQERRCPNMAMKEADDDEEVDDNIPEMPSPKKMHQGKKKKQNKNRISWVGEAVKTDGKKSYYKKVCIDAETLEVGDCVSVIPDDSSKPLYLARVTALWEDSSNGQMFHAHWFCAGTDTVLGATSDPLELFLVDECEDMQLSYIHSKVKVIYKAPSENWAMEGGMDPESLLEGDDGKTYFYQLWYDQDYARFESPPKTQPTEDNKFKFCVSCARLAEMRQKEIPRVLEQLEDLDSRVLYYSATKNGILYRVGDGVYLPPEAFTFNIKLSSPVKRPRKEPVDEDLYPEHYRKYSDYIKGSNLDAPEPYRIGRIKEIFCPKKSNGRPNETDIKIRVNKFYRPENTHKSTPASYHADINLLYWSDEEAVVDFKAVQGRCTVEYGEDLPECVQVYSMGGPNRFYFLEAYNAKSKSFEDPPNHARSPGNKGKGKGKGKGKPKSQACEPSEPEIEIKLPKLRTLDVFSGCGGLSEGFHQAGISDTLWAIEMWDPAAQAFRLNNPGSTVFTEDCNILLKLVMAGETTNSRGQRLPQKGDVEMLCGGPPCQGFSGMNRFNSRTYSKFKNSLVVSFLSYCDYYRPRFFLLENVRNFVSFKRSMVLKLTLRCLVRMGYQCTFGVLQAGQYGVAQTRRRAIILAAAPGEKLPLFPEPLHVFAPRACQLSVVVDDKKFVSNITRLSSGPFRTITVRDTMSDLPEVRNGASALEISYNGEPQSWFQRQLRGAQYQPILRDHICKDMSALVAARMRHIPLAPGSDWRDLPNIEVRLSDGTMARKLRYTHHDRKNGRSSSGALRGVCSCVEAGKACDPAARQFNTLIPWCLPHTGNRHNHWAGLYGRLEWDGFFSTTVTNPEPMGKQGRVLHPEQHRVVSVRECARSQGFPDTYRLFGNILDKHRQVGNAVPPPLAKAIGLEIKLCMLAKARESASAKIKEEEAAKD", "experiment": "DNMT1 methyltransferase inhibitors, confirmation, biochemical, fluorescent molecular beacon (AID 602386)", "assay_type": "functional"}, "[15]": {"biological_target": "T5, Small ubiquitin-related modifier 1 (Homo sapiens, UniProt P63165)", "T5 sequence (P63165 whole entry)": "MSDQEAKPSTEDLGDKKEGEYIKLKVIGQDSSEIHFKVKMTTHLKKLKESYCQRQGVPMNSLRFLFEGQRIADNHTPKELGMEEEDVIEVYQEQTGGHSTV", "experiment": "inhibitors of SUMO1 peptide binding, dose response, biochemical, fluorescence polarization, uHTS hits (AID 624382)", "assay_type": "functional", "details": "read-out: IC50_Mean"}, "[16]": {"biological_target": "T5, Small ubiquitin-related modifier 1", "experiment": "inhibitors of SUMO1 partner interactions, dose response, biochemical, FRET (AID 624383)", "assay_type": "functional", "details": "read-out: IC50_Mean"}}, "note": "Calls of active or inactive are those of the source.", "data": [{"smiles": "CCOc1ccc(NC(=O)CSc2nc3ccsc3c(=O)n2Cc2ccc(C(=O)O)cc2)cc1", "values": [{"measurement": "IC50", "setting": "[1]", "value": "14.5 µM (not active)"}, {"measurement": "IC50", "setting": "[2]", "value": "> 32 µM (inactive)"}]}, {"smiles": "S=C(NC1CCCCC1)c1cn(CCOc2ccccc2)c2ccccc12", "values": [{"measurement": "IC50", "setting": "[3]", "value": "> 100 µM (inactive)"}, {"measurement": "IC50", "setting": "[4]", "value": "> 100 µM (inactive)"}, {"measurement": "IC50", "setting": "[5]", "value": "> 100 µM (inactive)"}, {"measurement": "IC50", "setting": "[6]", "value": "> 100 µM (inactive)"}]}, {"smiles": "Nc1ccc2c3c(cccc13)C(=O)N(c1ccccc1)C2=O", "values": [{"measurement": "IC50", "setting": "Beta-lactamase [7]", "value": "12.7 µM (inactive)"}, {"measurement": "IC50", "setting": "Beta-lactamase [8]", "value": "4.41 µM (active)"}, {"measurement": "AC50", "setting": "ORF 73", "value": "5.56 µM (active)"}, {"measurement": "AC50", "setting": "Keap1/Nrf2", "value": "1.4 µM (active)"}]}, {"smiles": "C=C(C)C(=O)Nc1cccc(C2=NOC3(C2)C[C@H](C(N)=O)N(C(=O)COc2ccc(Cl)cc2)C3)c1", "note": "(stereo partly drawn)", "values": [{"measurement": "IC50", "setting": "[9]", "value": "118 µM (active)"}, {"measurement": "IC50", "setting": "[10]", "value": "> 100 µM (inactive)"}, {"measurement": "IC50", "setting": "[11]", "value": "7.21 µM (active)"}, {"measurement": "EC50", "setting": "[12]", "value": "4.23 µM (active)"}, {"measurement": "IC50", "setting": "[13]", "value": "3.74 µM (active)"}, {"measurement": "IC50", "setting": "[14]", "value": "5.52 µM (active)"}, {"measurement": "IC50", "setting": "[15]", "value": "> 66.6 µM (inactive)"}, {"measurement": "IC50", "setting": "[16]", "value": "1.94 µM (active)"}]}]}
